{"source": "PubChem BioAssay AID2060906", "about": "(Molecular Pharmacology Branch, DTP, NCI, 2025);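 also: spheroids exposed to compounds for seven days before readout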;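 as to viability, T/C: luminescence viability expressed relative to DMSO vehicle wells set as 100%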", "system": "485176-168-R4-J1-PDC complex spheroid growth", "assay": "Anticancer human tumor 485176-168-R4-J1-PDC patient-derived pancreatic adenocarcinoma cell line growth inhibition [RAS]", "settings": "for IC50: curve of first compound; for viability, T/C: stronger effect = lower value", "summary_of_the_method": "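Tumour cells grown as complex spheroids with HUVEC endothelial cells and mesenchymal stem cells, treated with RAS pathway inhibitor combinations. Each agent spans half-log steps from near clinical Cmax, or 10 microM where Cmax is unknown.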", "data": [{"smiles": "CCc1c2c(nc3ccc(O)cc13)-c1cc3c(c(=O)n1C2)COC(=O)[C@]3(O)CC", "note": "+ CCn1c(-c2cc(N3CCN(C)CC3)cnc2C(C)OC)c2c3cc(ccc31)-c1csc(n1)CC(NC(=O)C1CC1C)C(=O)N1CCCC(N1)C(=O)OCC(C)(C)C2", "values": [{"measurement": "IC50", "setting": "second compound 0.000949 µM", "value": 13.9, "unit": "nM"}, {"measurement": "IC50", "setting": "second compound 0.003 µM", "value": 12.4, "unit": "nM"}, {"measurement": "IC50", "setting": "second compound 0.00949 µM", "value": 11.6, "unit": "nM"}, {"measurement": "IC50", "setting": "second compound 0.03 µM", "value": 11.2, "unit": "nM"}, {"measurement": "IC50", "setting": "second compound 0.0949 µM", "value": 10.3, "unit": "nM"}, {"measurement": "IC50", "setting": "second compound 0.3 µM", "value": 7.16, "unit": "nM"}, {"measurement": "viability, T/C", "setting": "second compound 0.000949 µM, first compound 0.000949 µM", "value": 104, "unit": "%"}, {"measurement": "viability, T/C", "setting": "second compound 0.000949 µM, first compound 0.003 µM", "value": 77.5, "unit": "%"}, {"measurement": "viability, T/C", "setting": "second compound 0.000949 µM, first compound 0.00949 µM", "value": 64.3, "unit": "%"}, {"measurement": "viability, T/C", "setting": "second compound 0.000949 µM, first compound 0.03 µM", "value": 30.8, "unit": "%"}, {"measurement": "viability, T/C", "setting": "second compound 0.000949 µM, first compound 0.0949 µM", "value": 16.6, "unit": "%"}, {"measurement": "viability, T/C", "setting": "second compound 0.000949 µM, first compound 0.3 µM", "value": 9.25, "unit": "%"}, {"measurement": "viability, T/C", "setting": "second compound 0.003 µM, first compound 0.000949 µM", "value": 95, "unit": "%"}, {"measurement": "viability, T/C", "setting": "second compound 0.003 µM, first compound 0.003 µM", "value": 86, "unit": "%"}, {"measurement": "viability, T/C", "setting": "second compound 0.003 µM, first compound 0.00949 µM", "value": 55.6, "unit": "%"}, {"measurement": "viability, T/C", "setting": "second compound 0.003 µM, first compound 0.03 µM", "value": 27.8, "unit": "%"}, {"measurement": "viability, T/C", "setting": "second compound 0.003 µM, first compound 0.0949 µM", "value": 16.1, "unit": "%"}, {"measurement": "viability, T/C", "setting": "second compound 0.003 µM, first compound 0.3 µM", "value": 9.83, "unit": "%"}, {"measurement": "viability, T/C", "setting": "second compound 0.00949 µM, first compound 0.000949 µM", "value": 81.2, "unit": "%"}, {"measurement": "viability, T/C", "setting": "second compound 0.00949 µM, first compound 0.003 µM", "value": 77.8, "unit": "%"}, {"measurement": "viability, T/C", "setting": "second compound 0.00949 µM, first compound 0.00949 µM", "value": 50.3, "unit": "%"}, {"measurement": "viability, T/C", "setting": "second compound 0.00949 µM, first compound 0.03 µM", "value": 32.4, "unit": "%"}, {"measurement": "viability, T/C", "setting": "second compound 0.00949 µM, first compound 0.0949 µM", "value": 16.2, "unit": "%"}, {"measurement": "viability, T/C", "setting": "second compound 0.00949 µM, first compound 0.3 µM", "value": 7.59, "unit": "%"}, {"measurement": "viability, T/C", "setting": "second compound 0.03 µM, first compound 0.000949 µM", "value": 70.7, "unit": "%"}, {"measurement": "viability, T/C", "setting": "second compound 0.03 µM, first compound 0.003 µM", "value": 72.3, "unit": "%"}, {"measurement": "viability, T/C", "setting": "second compound 0.03 µM, first compound 0.00949 µM", "value": 52.3, "unit": "%"}, {"measurement": "viability, T/C", "setting": "second compound 0.03 µM, first compound 0.03 µM", "value": 28.3, "unit": "%"}, {"measurement": "viability, T/C", "setting": "second compound 0.03 µM, first compound 0.0949 µM", "value": 15.9, "unit": "%"}, {"measurement": "viability, T/C", "setting": "second compound 0.03 µM, first compound 0.3 µM", "value": 12, "unit": "%"}, {"measurement": "viability, T/C", "setting": "second compound 0.0949 µM, first compound 0.000949 µM", "value": 70.1, "unit": "%"}, {"measurement": "viability, T/C", "setting": "second compound 0.0949 µM, first compound 0.003 µM", "value": 76.8, "unit": "%"}, {"measurement": "viability, T/C", "setting": "second compound 0.0949 µM, first compound 0.00949 µM", "value": 45.2, "unit": "%"}, {"measurement": "viability, T/C", "setting": "second compound 0.0949 µM, first compound 0.03 µM", "value": 32.5, "unit": "%"}, {"measurement": "viability, T/C", "setting": "second compound 0.0949 µM, first compound 0.0949 µM", "value": 17, "unit": "%"}, {"measurement": "viability, T/C", "setting": "second compound 0.0949 µM, first compound 0.3 µM", "value": 9.84, "unit": "%"}, {"measurement": "viability, T/C", "setting": "second compound 0.3 µM, first compound 0.000949 µM", "value": 78.3, "unit": "%"}, {"measurement": "viability, T/C", "setting": "second compound 0.3 µM, first compound 0.003 µM", "value": 62.1, "unit": "%"}, {"measurement": "viability, T/C", "setting": "second compound 0.3 µM, first compound 0.00949 µM", "value": 47.3, "unit": "%"}, {"measurement": "viability, T/C", "setting": "second compound 0.3 µM, first compound 0.03 µM", "value": 27.6, "unit": "%"}, {"measurement": "viability, T/C", "setting": "second compound 0.3 µM, first compound 0.0949 µM", "value": 15.2, "unit": "%"}, {"measurement": "viability, T/C", "setting": "second compound 0.3 µM, first compound 0.3 µM", "value": 6.04, "unit": "%"}]}, {"smiles": "CCc1c2c(nc3ccc(O)cc13)-c1cc3c(c(=O)n1C2)COC(=O)[C@]3(O)CC", "note": "+ C=CC(=O)N1CCN(c2nc(OCC3CCCN3C)nc3c(F)c(-c4nc(N)cc(C)c4C(F)(F)F)c(Cl)cc23)C(C)C1", "values": [{"measurement": "IC50", "setting": "second compound 0.00316 µM", "value": 13.3, "unit": "nM"}, {"measurement": "IC50", "setting": "second compound 0.01 µM", "value": 13.7, "unit": "nM"}, {"measurement": "IC50", "setting": "second compound 0.0316 µM", "value": 11.1, "unit": "nM"}, {"measurement": "IC50", "setting": "second compound 0.1 µM", "value": 11.9, "unit": "nM"}, {"measurement": "IC50", "setting": "second compound 0.316 µM", "value": 16.6, "unit": "nM"}, {"measurement": "IC50", "setting": "second compound 1 µM", "value": 11.1, "unit": "nM"}, {"measurement": "viability, T/C", "setting": "second compound 0.00316 µM, first compound 0.000949 µM", "value": 94.2, "unit": "%"}, {"measurement": "viability, T/C", "setting": "second compound 0.00316 µM, first compound 0.003 µM", "value": 79.2, "unit": "%"}, {"measurement": "viability, T/C", "setting": "second compound 0.00316 µM, first compound 0.00949 µM", "value": 58.4, "unit": "%"}, {"measurement": "viability, T/C", "setting": "second compound 0.00316 µM, first compound 0.03 µM", "value": 31.9, "unit": "%"}, {"measurement": "viability, T/C", "setting": "second compound 0.00316 µM, first compound 0.0949 µM", "value": 13.9, "unit": "%"}, {"measurement": "viability, T/C", "setting": "second compound 0.00316 µM, first compound 0.3 µM", "value": 6.54, "unit": "%"}, {"measurement": "viability, T/C", "setting": "second compound 0.01 µM, first compound 0.000949 µM", "value": 94, "unit": "%"}, {"measurement": "viability, T/C", "setting": "second compound 0.01 µM, first compound 0.003 µM", "value": 82.6, "unit": "%"}, {"measurement": "viability, T/C", "setting": "second compound 0.01 µM, first compound 0.00949 µM", "value": 60.6, "unit": "%"}, {"measurement": "viability, T/C", "setting": "second compound 0.01 µM, first compound 0.03 µM", "value": 28.8, "unit": "%"}, {"measurement": "viability, T/C", "setting": "second compound 0.01 µM, first compound 0.0949 µM", "value": 12.5, "unit": "%"}, {"measurement": "viability, T/C", "setting": "second compound 0.01 µM, first compound 0.3 µM", "value": 6.49, "unit": "%"}, {"measurement": "viability, T/C", "setting": "second compound 0.0316 µM, first compound 0.000949 µM", "value": 84.8, "unit": "%"}, {"measurement": "viability, T/C", "setting": "second compound 0.0316 µM, first compound 0.003 µM", "value": 97.8, "unit": "%"}, {"measurement": "viability, T/C", "setting": "second compound 0.0316 µM, first compound 0.00949 µM", "value": 47.5, "unit": "%"}, {"measurement": "viability, T/C", "setting": "second compound 0.0316 µM, first compound 0.03 µM", "value": 27.8, "unit": "%"}, {"measurement": "viability, T/C", "setting": "second compound 0.0316 µM, first compound 0.0949 µM", "value": 10.9, "unit": "%"}, {"measurement": "viability, T/C", "setting": "second compound 0.0316 µM, first compound 0.3 µM", "value": 4.77, "unit": "%"}, {"measurement": "viability, T/C", "setting": "second compound 0.1 µM, first compound 0.000949 µM", "value": 81.3, "unit": "%"}, {"measurement": "viability, T/C", "setting": "second compound 0.1 µM, first compound 0.003 µM", "value": 70.1, "unit": "%"}, {"measurement": "viability, T/C", "setting": "second compound 0.1 µM, first compound 0.00949 µM", "value": 54.1, "unit": "%"}, {"measurement": "viability, T/C", "setting": "second compound 0.1 µM, first compound 0.03 µM", "value": 34.5, "unit": "%"}, {"measurement": "viability, T/C", "setting": "second compound 0.1 µM, first compound 0.0949 µM", "value": 11.2, "unit": "%"}, {"measurement": "viability, T/C", "setting": "second compound 0.1 µM, first compound 0.3 µM", "value": 6.91, "unit": "%"}, {"measurement": "viability, T/C", "setting": "second compound 0.316 µM, first compound 0.000949 µM", "value": 92.8, "unit": "%"}, {"measurement": "viability, T/C", "setting": "second compound 0.316 µM, first compound 0.003 µM", "value": 82.4, "unit": "%"}, {"measurement": "viability, T/C", "setting": "second compound 0.316 µM, first compound 0.00949 µM", "value": 71.8, "unit": "%"}, {"measurement": "viability, T/C", "setting": "second compound 0.316 µM, first compound 0.03 µM", "value": 27, "unit": "%"}, {"measurement": "viability, T/C", "setting": "second compound 0.316 µM, first compound 0.0949 µM", "value": 14, "unit": "%"}, {"measurement": "viability, T/C", "setting": "second compound 0.316 µM, first compound 0.3 µM", "value": 5.42, "unit": "%"}, {"measurement": "viability, T/C", "setting": "second compound 1 µM, first compound 0.000949 µM", "value": 95.9, "unit": "%"}, {"measurement": "viability, T/C", "setting": "second compound 1 µM, first compound 0.003 µM", "value": 75, "unit": "%"}, {"measurement": "viability, T/C", "setting": "second compound 1 µM, first compound 0.00949 µM", "value": 58.7, "unit": "%"}, {"measurement": "viability, T/C", "setting": "second compound 1 µM, first compound 0.03 µM", "value": 22.7, "unit": "%"}, {"measurement": "viability, T/C", "setting": "second compound 1 µM, first compound 0.0949 µM", "value": 10.5, "unit": "%"}, {"measurement": "viability, T/C", "setting": "second compound 1 µM, first compound 0.3 µM", "value": 6.39, "unit": "%"}]}]}
